# According to patent US9993494B2, “Compositions and methods for treating fibrotic disease” (eFFECTOR Therapeutics, Inc., priority 2014, dated 2018):
# Columns and labels:
# [1] = system: normal human lung fibroblasts; test: Western blot of α-smooth muscle actin (α-SMA) in TGFβ-treated fibroblasts; assay type: cell-based; conditions: for % Renormalization α-SMA: fibroblasts treated with TGFβ; for % Renormalization α-SMA / TGFβ-induced α-SMA protein level: western blot
# Protocol: (§1) Briefly, normal human lung fibroblasts (Lonza #CC-2512; cell passage numbers 2 through 5 were used for all experiments) were seeded (Day 0) and cultured in Dulbecco's modified Eagle medium (DMEM) supplemented with 10% fetal bovine serum (FBS), penicillin, streptomycin and glutamax (Invitrogen) at 37° C. in a humidified incubator with 5% CO2 overnight. On Day 1, cells were harvested, washed with phosphate buffered saline (PBS), and then incubated for 48 hours in fresh serum-free DMEM supplemented with penicillin, streptomycin, and glutamax.
# (§2) After this 24 hour incubation, procollagen type 1 levels were measured by collecting culture media, centrifuging to pellet cellular debris, and stored at −80° C. Procollagen Type 1 C-Peptide (PIPC) was quantified using the (PIP) EIA kit (Clontech, Cat. No. MK101) according to manufacturer's instructions. The TGFβ-treated fibroblasts of this example were examined by ribosomal profiling (about 6×10^6 cells/10 cm plate) and western blot analysis (about 1×10^6 cells/well of a 6-well plate).
# (§3) TGFβ-dependent activation of the PI3K/Akt/mTOR and ERK pathways were also examined by western blot analysis (about 1×10^6 cells/well from a 6-well plate). Briefly, cells were washed with PBS and lysed in 1× cell lysis buffer (Cell Signaling Technology, Inc., Danvers, Mass.) for 15 minutes at 4° C. Lysates were briefly sonicated, clarified by centrifugation for 15 minutes at 14,000 rpm, and then supernatants were collected. Protein concentration in the soluble fraction was determined by BCA protein assay (Thermo Scientific, Rockford, Ill.). Samples of protein (20 μg) were resolved on 4-20% Bis-Tris gradient gel (Invitrogen, Carlsbad, Calif.) and transferred to nitrocellulose membrane. The resulting blots were blocked for 1 hour at room temperature with Odyssey blocking solution (LI-COR) and then incubated with primary antibodies at 4° C. overnight. The following day, each blot was washed three times for 10 minutes in TBST, and then incubated with goat anti-rabbit fluorescent conjugated secondary antibody (IRDye 800 CW at 1:20,000; LI-COR) for 1 hour at room temperature. The blots were washed and scanned, and then specific proteins were detected by using the LI-COR Odyssey infrared imager. The following antibodies were used at 1:1000 dilution: anti-α-actin (Sigma #A2547), anti-phospho-4EBP(Ser65), anti-phospho-rpS6(Ser235/236)(#4858), anti-phospho-ERK1/2(Thr202/Tyr204)(#4370), anti-phospho-p70S6K(Thr421/Ser424)(#9204), anti-phospho-pAKT(Ser473), anti-phospho-MNK(Thr197/202), and anti-β-actin (#4970). Unless otherwise indicated, the antibodies were from Cell Signaling Technology, Inc. (Danvers, Mass.).
# as §1, with “(Lonza;” for “(Lonza #CC-2512;”, “CO2 conditions” for “CO2”, “glutamax. On Day 3, cells were harvested, resuspended in fresh serum-free DMEM containing silvestrol (1, 5, 10, 75, 100, 500, or 1000 nM) and 10 ng/ml TGFβ, and cultured for 24 hours. Controls included untreated cells and cells treated with only TGFβ.” for “glutamax.”
# (§4) After this 24 hour incubation, procollagen type 1 levels were measured by collecting culture media, centrifuging to pellet cellular debris, and stored at −80° C. Procollagen Type 1 C-Peptide (PIPC) was quantified using the (PIP) EIA kit (Clontech) according to manufacturer's instructions. The TGFβ-treated fibroblasts of this example are examined by ribosomal profiling (about 6×10^6 cells/10 cm plate) and western blot analysis (about 1×10^6 cells/well of a 6-well plate).
# [2] = system: normal human lung fibroblasts; test: Procollagen Type 1 C-Peptide (PIPC) EIA in culture media of TGFβ-treated fibroblasts; assay type: cell-based; conditions: for % Renormalization Collagen: fibroblasts treated with TGFβ, procollagen ELISA
# Protocol: as §1, §2
# as §1, with “(Lonza;” for “(Lonza #CC-2512;”, “CO2 conditions” for “CO2”, “glutamax. On Day 3, cells were harvested, resuspended in fresh serum-free DMEM containing silvestrol (1, 5, 10, 75, 100, 500, or 1000 nM) and 10 ng/ml TGFβ, and cultured for 24 hours. Controls included untreated cells and cells treated with only TGFβ.” for “glutamax.”
# as §4
# The levels of α-SMA and procollagen type 1, markers of fibroblast transdifferentiation into myofibroblasts and a surrogate for fibrotic disease progression, were measured after a 24 hour incubation of fibroblasts in the presence or absence of TGFβ sieIF4A1 or siCont. The knockdown efficiency was determined by quantitating the eIF4A mRNA level by qPCR (data not shown) and assessing the protein level by western analysis (see FIG. 11).
# [3] = system: AKT, 4EBP, S6K, and S6 of the mTOR pathway; test: Western blot of TGFβ-dependent phosphorylation of PI3K/Akt/mTOR and ERK pathway proteins; assay type: cell-based, human; conditions: PP242 0.625 μM, co-incubation with TGFβ, FIG. 2
# Protocol: as §3, with “The following antibodies were used at 1:1000 dilution: anti-α-actin (Sigma #A2547), anti-phospho-4EBP(Ser65), anti-phospho-rpS6(Ser235/236)(#4858), anti-phospho-ERK1/2(Thr202/Tyr204)(#4370), anti-phospho-p70S6K(Thr421/Ser424)(#9204), anti-phospho-pAKT(Ser473), anti-phospho-MNK(Thr197/202), and anti-β-actin (#4970). Unless otherwise indicated, the antibodies were from Cell Signaling Technology, Inc. (Danvers, Mass.).” left out
SMILES,% Renormalization α-SMA ([1]; 24 hours),% Renormalization Collagen ([2]; 24 hours),"TGFβ-induced α-SMA protein level ([1]; 10 ng/ml TGFβ, 24 hours)","α-SMA level ([1]; PP242 0.625 μM, co-incubation with TGFβ, FIG. 2)","TGFβ-dependent increases in phosphorylation of AKT, 4EBP, S6K, and S6 [3]","ratio of α-SMA to β-actin at higher silvestrol concentrations ([1]; 10 ng/ml TGFβ, 24 hours, FIG. 10)","EC50 ([1]; Homo sapiens, Fibroblast, 24 h, read-out: EC50 for reduction of the α-SMA protein level)","EC50 ([2]; Homo sapiens, Fibroblast, 24 h, read-out: EC50 for blocking the TGFβ-induced increase in procollagen production)","extent of inhibition of procollagen at higher concentrations, of untreated TGFβ-transformed myofibroblasts ([2]; higher concentrations, saturable, 10 ng/ml TGFβ, 24 hours)","inhibition of procollagen relative to untreated, untransformed control fibroblasts ([2]; higher concentrations, 10 ng/ml TGFβ, 24 hours)"
"Cc1cc(C2CCCCC2)n(O)c(=O)c1.NCCO [CPX, ciclopirox oloamine]",+++ (+++ = >60%),+++ (+++ = >60%),–,–,–,–,–,–,–,–
CC(C)n1nc(-c2cc3cc(O)ccc3[nH]2)c2c(N)ncnc21 [PP242],+++ (+++ = >60%),+++ (+++ = >60%),reduction of the α-SMA protein level in a dose dependent manner,decrease in α-SMA to pretreatment levels,sufficient to abolish,–,–,–,–,–
COC(=O)[C@H]1[C@@H](O)[C@@]2(O)c3c(OC)cc(O[C@@H]4O[C@@H]([C@H](O)CO)CO[C@H]4OC)cc3O[C@@]2(c2ccc(OC)cc2)[C@@H]1c1ccccc1 [Silvestrol],+++ (+++ = >60%),+++ (+++ = >60%),reduction of the α-SMA protein level in a dose dependent manner,–,–,"the same as in untransformed, untreated fibroblasts",~11 nM,~12 nM,about 90%,about 80%
"CC(C=CC(=O)NO)=CC(C)C(=O)c1ccc(N(C)C)cc1 (stereo not shown) [TSA, 7-[4-(dimethylamino)phenyl]-N-hydroxy-4,6-dimethyl-7-oxohepta-2,4-dienamide]",++ (++ = 30-60%),+++ (+++ = >60%),–,–,–,–,–,–,–,–
"Cc1ccc(=O)n(-c2ccccc2)c1 [pirfenidone, 5-methyl-1-phenylpyridin-2-one]",+++ (+++ = >60%),+++ (+++ = >60%),–,–,–,–,–,–,–,–
